According to patent US10682320B2, “Method for inhibiting osteoclast development” (West Virginia University, priority 2012, dated 2020):

Key:
Format in all cases: cell-based
[1] = test system: store-operated Ca2+ entry (SOCe); assay: Store-operated Ca2+ entry (SOCe) in human osteoclasts; conditions: n=3; data not shown
Protocol: Human monocytes were isolated from normal buffy coat cells (60-80 ml) obtained with approval of institutional review boards by separation from donor blood, the white-cell depleted blood retained for clinical use. Human monocyte culture and differentiation were as reported (see, Yaroslayskly B B, Zhang Y, Kalla S E, Garcia P V, Sharrow A C, Li Y, Zaidi M, Wu C, Blair H C, “NO-dependent osteoclast motility: Reliance on cGMP-dependent protein kinase I and VASP”, J Cell Sci I, Vol. 18, pages 5479-5487, 2005). […]
Ratiometric imaging of intracellular Ca^2+ using fura-2 was as described (see, Zhou et al., 2009 above). […] Ca^2+ measurements were made using a Leica DMI 6000B fluorescence microscope controlled by Slidebook Software. Fluorescence emission at 505 nm was monitored while alternating between 340 and 380 nm excitation wavelengths at a frequency of 0.67 Hz; intracellular Ca^2+ measurements are shown as 340/380 nm emission ratios obtained from groups (35-45) of single cells. […]
The haloanilide DCPA blocks store-operated Ca^2+ channel function in Jurkat cells with no effect on ER Ca^2+ content. […] To address this, the present inventor examined HEK293 cells stably expressing Orai I and transiently transfected with YFP-STIMI and measured the effect of DCPA on CRAC current or Icrac. […]

[2] = test system: human monocytes differentiating into osteoclasts; assay: Human osteoclast differentiation in vitro (multinucleation, TRAP); conditions: 8 days after RANKL
Protocol: Human monocytes were isolated from normal buffy coat cells (60-80 ml) obtained with approval of institutional review boards by separation from donor blood, the white-cell depleted blood retained for clinical use. Human monocyte culture and differentiation were as reported (see, Yaroslayskly B B, Zhang Y, Kalla S E, Garcia P V, Sharrow A C, Li Y, Zaidi M, Wu C, Blair H C, “NO-dependent osteoclast motility: Reliance on cGMP-dependent protein kinase I and VASP”, J Cell Sci I, Vol. 18, pages 5479-5487, 2005). Briefly, human monocytes cells were isolated from buffy coat on ficoll lymphocyte separation media and cultured at ˜6×10^5 cells per cm^2 in monocyte maintenance medium, Dulbecco's modified essential medium (DMEM) with 20 ng/ml of human m-CSF and 10% FBS, for 24 hours (h). After 24 h in culture, the medium was changed to osteoclast differentiation medium containing in addition of human 50 ng/ml of RANKL, with the additional inhibitors or activators as specified in results. Human osteoclast cultures were generally maintained for a minimum of 7 days before analysis, or longer times as specified in results.
The effect of DCPA on human osteoclast differentiation 8 days after addition of RANKL was evaluated.

[3] = target: T1, STIM I (Homo sapiens, UniProt Q13586); assay: STIM I puncta formation in HEK293 cells transfected with YFP-STIM I; conditions: 2 μM thapsigargin, 16 minute period
T1 construct: expressed in transfected cells; host or cells: HEK293
Protocol: HEK293 cells, maintained in DMEM with 10% FBS, were transfected with YFP-STIM I using Lipofectamine 2000 (Invitrogen, Carlsbad, Calif.) for 5 h (37° C.; 5% CO2) followed by a 24-h recovery. Cells were placed in 140 mM NaCl, 5 mM KCl, 1 mM MgCl2, 10 mM glucose, 15 mM HEPES, 0.1% BSA, 2 mM CaCl2 and analyzed by confocal microscopy for STIM I puncta formation using a Nikon phase-fluorescence microscope with CCD detectors (Diagnostic instruments, Sterling Heights, Mich.). Phase or transmitted light microscopy used 10-40× objectives and red, green, and blue filters to assemble color images. Fluorescence images used 1.4 NA 40× oil objectives. Red fluorescence used excitation at 530-560 nm, a 575 nm dichroic minor, and 580-650 nm emission filter. Transfection data were analyzed using Nikon NIS Elements Imaging Software. The effect of DCPA on STIM I/Orai I association was determined in wild-type HEK293 cells transfected with STIM I-YFP as described in Wang Y, Deng X, Zhou Y, Hendron E, Mancarelia S, Ritchie M F, Tang X D, Baba Y, Kurosaki T, Mori Y, Soboloff J, Gill DL, “STIM protein coupling in the activation of Orai channels”, Proc Natl Acad Sci USA, Vol. 106, pages 7391-7396, 2009. Experiments were performed on a Leica DMI 6000B fluorescence microscope controlled by Slidebook Software (Intelligent Imaging Innovations, Denver, Colo.). […]

[4] = target: T2, STIM I/Orai I interaction (Homo sapiens, UniProt Q13586); assay: 2-APB-induced STIM I ct translocation to plasma membrane; conditions: DCPA 100 μM, 2-APB 50 μM
T2 construct: the cytosolic fragment of STIM I (STIM 1 ct); expressed in transfected cells
T2 sequence (Q13586 235-685 limits assumed): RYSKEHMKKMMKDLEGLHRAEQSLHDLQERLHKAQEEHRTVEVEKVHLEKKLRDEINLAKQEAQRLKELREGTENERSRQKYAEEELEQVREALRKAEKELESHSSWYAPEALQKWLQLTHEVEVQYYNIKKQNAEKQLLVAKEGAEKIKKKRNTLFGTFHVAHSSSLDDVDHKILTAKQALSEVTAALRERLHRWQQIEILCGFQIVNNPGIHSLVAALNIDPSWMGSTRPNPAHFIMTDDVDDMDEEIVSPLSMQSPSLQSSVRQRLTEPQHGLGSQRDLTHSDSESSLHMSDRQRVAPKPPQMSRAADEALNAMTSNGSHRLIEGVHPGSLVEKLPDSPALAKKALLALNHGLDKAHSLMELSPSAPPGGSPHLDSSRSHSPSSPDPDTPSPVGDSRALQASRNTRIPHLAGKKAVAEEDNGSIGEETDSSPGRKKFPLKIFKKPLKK

T1 sequence (Q13586 23-685): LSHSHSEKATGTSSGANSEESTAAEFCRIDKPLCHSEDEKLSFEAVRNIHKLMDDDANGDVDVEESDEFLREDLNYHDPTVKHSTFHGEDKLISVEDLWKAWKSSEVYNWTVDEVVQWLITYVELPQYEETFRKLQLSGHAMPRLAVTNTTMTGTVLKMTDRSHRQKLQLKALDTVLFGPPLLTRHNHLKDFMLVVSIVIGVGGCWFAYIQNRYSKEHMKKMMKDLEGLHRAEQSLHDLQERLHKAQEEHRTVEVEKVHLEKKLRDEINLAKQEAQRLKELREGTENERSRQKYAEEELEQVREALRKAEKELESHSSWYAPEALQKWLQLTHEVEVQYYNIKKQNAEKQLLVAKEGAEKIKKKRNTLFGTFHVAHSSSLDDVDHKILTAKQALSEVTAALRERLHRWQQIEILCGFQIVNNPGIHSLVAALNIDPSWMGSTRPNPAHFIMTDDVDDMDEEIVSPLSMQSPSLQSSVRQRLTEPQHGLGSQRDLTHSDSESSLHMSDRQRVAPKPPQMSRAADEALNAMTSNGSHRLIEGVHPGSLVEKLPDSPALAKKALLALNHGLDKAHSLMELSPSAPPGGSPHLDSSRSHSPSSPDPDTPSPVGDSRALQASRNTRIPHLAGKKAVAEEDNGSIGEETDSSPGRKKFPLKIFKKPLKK

## CCC(=O)Nc1ccc(Cl)c(Cl)c1 [DCPA, N-(3,4-dichlorophenyl)propanamide]
[1]
  reduction of SOCe in osteoclasts: 27.5%
[2]; 1.0 μM
  number of multinucleated TRAP+ cells: minimal effect
[2]; 10 and 100 μM
  number of multinucleated cells: marked progressive reduction
[2]; up to highest concentration (100 μM)
  TRAP activity: no differences
[3]
  STIM I puncta formation after store depletion: dramatically inhibited
[4]
  ability of 2-APB to induce STIM I ct translocation to the plasma membrane: dramatically attenuated
